Data on one molecule can be found in US7956060B2, “Pyrimidine derivative compound” (Kyowa Hakko Kirin Co., Ltd., priority 2004, dated 2011).

The experiment has as its system human acute myeloid leukemia cell line MV-4-11. The experiment is described as follows: Cytostatic activity on leukemia cell line (WST-1 assay). It is filed as cell-based. The settings on record: MV-4-11 cells, test compound 10 μmol/L, 72 hours. The method, then: The cytostatic rate (%) of a test compound on human acute myeloid leukemia cell line MV-4-11 was determined in the following manner.
Each cell was cultured using Roswell Park Memorial Institute's Medium (RPMI) 1640 (Gibco, Catalog No. 11875-093) containing 10% fetal bovine serum (Gibco, Catalog. No. 10437-028) and 1% penicillin/streptomycin (1:1) (Gibco, Catalog No. 15140-122). Each 80 μL of the MV-4-11 cell having a concentration of 7.5×10^4 cells/mL (or K562 cell having a concentration of 2.5×10^4 cells/mL) was inoculated to wells of a TC MICROWELL 96U plate (Nalge Nunc International, Catalog No. 163320) and was cultured in a 5% carbon dioxide gas incubator at 37° C. for 4 hours. As a blank, only RPMI medium (80 μL) was added to a well. […] Then, the absorbances at 450 nm (reference wavelength: 690 nm) were determined with a microplate spectrophotometer SPECTRA max 340PC (Molecular Devices Corporation). The relative growth (%) of a well to which the test compound had been added was determined while setting the absorbance of a well to which not the test compound but DMSO alone had been added (control) at 100% and that of a well containing RPMI medium alone at 0%. The cytostatic rate (%) of the test compound was determined by subtracting the calculated relative growth from 100.

Each structure is given as a SMILES string.

Take `CCNc1nc(NCCc2ccncc2)ncc1-c1nnc(CN2CCN(C)CC2)o1` [Compound 4-32]: the “cytostatic rate MV-4-11 (%, 10 μmol/L)” value turned out to be 99%.
